Where two headings read alike, the source gives them in different places.
Tests used:
[1] = tested on: LNCaP cells; settings: 10 ng/ml
Protocol: FIG. 12A Evaluation of cell death and caspase activation in RWPE-1 cells infected with TW3′ or decoy15/16 vectors and treated with 10 ng/ml of docetaxel. Caspase activation was measured after 4 h of treatment. FIG. 12B Evaluation of cell death and caspase activation in LNCaP cells infected with TW or TWmiR-15a/miR-16 vectors and exposed to 10 ng/ml of docetaxel. FIG. 12C-D Evaluation of cell death and caspase activation in miR15a/miR-16 defective or non-defective (normal) primary tumor cells transduced as indicated and treated with 10 ng/ml docetaxel. FIG. 12C. Cell death was measured after 24 h exposure to docetaxel. FIG. 12D. Caspase activation in LNCaP and primary tumor cells was measured after 18 h of treatment. Data are mean±s.d. of at least three independent experiments for each group.
Cell death was evaluated by trypan blue staining, PI staining and flow cytometry analysis, Apo-percentage assay (Biocolor) and Cell Titer kit (Promega). Caspase activation was detected using APO-one Homogeneous Caspase3/7 Assay Kit (Promega).

[2] = tested on: Wnt3a 3′UTR; assay: Luciferase reporter assay, pGL3-3′UTR cotransfected with miR oligos; type: cell-based, human; settings: K562 cells, 25 pmol oligo, 48 hours post-transfection, vs scrambled oligos
Protocol: (§1) 3′UTR segments of Bcl-2, cyclin D1 and Wnt3a were amplified by PCR from normal human genomic DNA and subcloned into the 3′UTR of the firefly luciferase coding sequence into pGL3-Promoter (Promega), see Supplementary Methods. Then K562 (5×10^4 cells per well) were transfected using Lipofectamine 2000 (Invitrogen) following the manufacturer's instructions. The transfection mix included: (a) 0.8 μg of pGL3-3′UTR plasmid and 50 ng of the control vector pRL-TK (Promega); (b) 25 pmol of either non-targeting RNA control (scrambled) or miR-15a or miR-16 oligonucleotides (Ambion). Forty-eight hours post-transfection, firefly and renilla luciferase activities were measured using the Dual Luciferase Assay kit (Promega). Transfection efficiencies were normalized by calculating the ratio of firefly to renilla. For each construct the relative luciferase activities were calculated by dividing the values obtained in the transfection of miR-15a and miR-16 by those of miR scrambled. Each experiment was performed in duplicate and replicated five times.
(§2) The miR-15a/miR-16 target genes UTRs were cloned in the Xba I site of pGL3 promoter, immediately downstream from the stop codon of the luciferase coding sequence. For Bcl-2, a 3′UTR of 1329 bp fragment was amplified, corresponding to residues 2446-3774 of Genbank Acc No M14745. For cyclin D1 3′UTR, a 1036 bp fragment was amplified ([…] of No NM_053056). For Wnt3a 3′UTR, a 906 bp fragment was amplified (residues 2026-2932 of No NM_033131.2). For 3′UTR cyclin D1 and Wnt3a mutagenesis, a five nucleotide mutation was inserted in the “seed” sequences interacting with miR-15a and miR-16 (see FIGS. 13A-C). Modified and HPLC purified oligonucleotides (Invitrogen) were used for amplification and mutagenesis, performed with Pfu enzyme following the in vitro mutagenesis kit protocol (Invitrogen). Transfection efficiencies of luciferase assays were normalized by calculating the ratio firefly/renilla. For each construct the relative luciferase activities were obtained by dividing the values obtained in the transfection of miR-15a and miR-16 by those of the non targeting miR scrambled. Each experiment was performed in duplicate and replicated five times.
(§3) To validate our targets, we subcloned the 3′UTR of these genes at the 3′ of the cDNA encoding luciferase in an expression construct and performed cotransfection experiments with miR-15a/miR-16. We narrowed our analysis to 1 kb regions harbouring the putative miR-15a/miR-16 target sites. The Bcl-2 3′UTR was tested in parallel as positive control. Luciferase assay was performed by cotransfecting pGL3-3′UTR vectors along with synthetic miR-15a, miR-16 and a control miR with a scrambled sequence.

[3] = tested on: cyclin D1 3′UTR; assay: as above; type: cell-based, human; settings: K562 cells, 25 pmol oligo, 48 hours post-transfection, vs scrambled oligos
Protocol: as §1, §2, §3

[4] = tested on: Bcl-2 3′UTR; assay: Luciferase reporter assay, pGL3-3′UTR cotransfected with miR oligos (positive control); type: cell-based, human; settings: K562 cells, 25 pmol oligo, 48 hours post-transfection, vs scrambled oligos
Protocol: as §1
The miR-15a/miR-16 target genes UTRs were cloned in the Xba I site of pGL3 promoter, immediately downstream from the stop codon of the luciferase coding sequence. For Bcl-2, a 3′UTR of 1329 bp fragment was amplified, corresponding to residues 2446-3774 of Genbank Acc No M14745. […]

[5] = tested on: Pim-1 UTR; assay: Luciferase reporter assay, pGL3-3′UTR cotransfected with miR oligos; type: cell-based, human; settings: K562 cells, 48 hours post-transfection, vs scrambled oligos

| Compound | Cytotoxic activity of docetaxel ([1]; empty vector-transduced LNCaP cells) | Cytotoxic activity of docetaxel ([1]; miR-15a/miR-16 reconstituted LNCaP cells) | Luciferase reporter activity [2] | Luciferase reporter activity [3] | Luciferase reporter activity [4] | Luciferase reporter activity [5] |
| --- | --- | --- | --- | --- | --- | --- |
| CC(=O)O[C@@]12CO[C@@H]1C[C@H](O)[C@@]1(C)C(=O)[C@H](O)C3=C(C)[C@@H](OC(=O)[C@H](O)[C@@H](NC(=O)OC(C)(C)C)c4ccccc4)C[C@@](O)([C@@H](OC(=O)c4ccccc4)[C@H]21)C3(C)C [docetaxel] | scarcely sensitive | massively killed |  |  |  |  |
| miR-15a: mature miR 15, SEQ ID NO 4, 5′-UAGCAGCACAUAAUGGUUUGUG-3′; synthetic oligonucleotide (Ambion) in reporter assays (listed as RNA, chemistry not given here; listed as Homo sapiens) |  |  | consistent reduction in reporter activity | consistent reduction in reporter activity | consistent reduction in reporter activity | non-targeted region |
| miR-16: mature miR 16, SEQ ID NO. 5, 5′-UAGCAGCACGUAAAUAUUGGCG-3′; synthetic oligonucleotide (Ambion) in reporter assays (listed as RNA, chemistry not given here; listed as Homo sapiens) |  |  | consistent reduction in reporter activity | consistent reduction in reporter activity | consistent reduction in reporter activity | non-targeted region |

Reference: US9702880B2, “Antisense RNA for treating cancer and inhibition of metastasis and vectors for antisense sequestration” (Istituto Superiore di Sanità, priority 2008, dated 2017)
